Laboratory results published in paper PMC7256108 (Cellular and Molecular Life Sciences: CMLS, 2019).
“And” between values parts separate entries of the source, which are not always exact repeats. Equal values may be shown once. Read-outs that look alike come from different tables or passages of the source.

How the values were obtained:
Assay type in all cases: cell-based
[1] = target: T1, OR2M3 wt (Homo sapiens, UniProt Q8NG83); assay: cAMP-luminescence GloSensor assay, recombinant OR2M3 wt; conditions: OR2M3 wt
T1 construct: full-length gene-specific forward and reverse primers were added; 39aa rho-tag; expressed in transfected cells; host or cells: NxG 108CC15 or HEK-293 cells
T1 sequence (Q8NG83 1-312): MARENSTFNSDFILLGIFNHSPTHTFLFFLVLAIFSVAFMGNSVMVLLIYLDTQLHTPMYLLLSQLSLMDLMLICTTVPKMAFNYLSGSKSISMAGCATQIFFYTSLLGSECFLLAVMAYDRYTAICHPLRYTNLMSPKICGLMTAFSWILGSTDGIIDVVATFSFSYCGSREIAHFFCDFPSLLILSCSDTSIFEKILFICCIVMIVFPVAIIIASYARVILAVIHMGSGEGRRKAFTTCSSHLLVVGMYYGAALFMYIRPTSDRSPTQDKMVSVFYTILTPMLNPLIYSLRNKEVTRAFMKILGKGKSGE
Experimental: (§1) The assay was performed as reported above.
(§2) All data are presented as mean ± SD.

[2] = target: T2, OR2M3 T105A (Homo sapiens, UniProt Q8NG83, T105A); assay: GloSensor assay, OR2M3 T105A
T2 construct: 39aa rho-tag; expressed in transfected cells; host or cells: NxG 108CC15 or HEK-293 cells
T2 sequence (Q8NG83 whole entry T105A): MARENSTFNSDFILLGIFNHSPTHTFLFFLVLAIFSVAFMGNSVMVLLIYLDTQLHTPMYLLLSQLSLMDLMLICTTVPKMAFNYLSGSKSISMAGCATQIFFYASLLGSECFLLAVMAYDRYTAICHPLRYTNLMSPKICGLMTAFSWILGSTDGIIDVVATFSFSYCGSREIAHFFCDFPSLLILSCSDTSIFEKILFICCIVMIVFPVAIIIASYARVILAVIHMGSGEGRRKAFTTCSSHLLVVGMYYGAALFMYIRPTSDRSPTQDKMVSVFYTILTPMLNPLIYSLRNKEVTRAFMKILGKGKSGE
Experimental: (§3) All receptor variants used were generated by PCR-based site-directed mutagenesis in two steps. Gene-specific primers (mutation primers) were used according to Table S2 and Table S3. The mutation primers, which carried the changed nucleotides, were designed overlapping.
as §1, §2

[3] = target: T3, OR2M3 C112A (Homo sapiens, UniProt Q8NG83, C112A); assay: GloSensor assay, OR2M3 C112A
T3 construct: 39aa rho-tag; expressed in transfected cells; host or cells: NxG 108CC15 or HEK-293 cells
T3 sequence (Q8NG83 whole entry C112A): as the sequence (Q8NG83 whole entry T105A) above, with A105T, C112A counted along it
Experimental: as §3, §1, §2

[4] = target: T4, OR2M3 C203S (Homo sapiens, UniProt Q8NG83, C203S); assay: GloSensor assay, OR2M3 C203S; conditions: 10 µmol/L Cu^2+, read-out: EC50 in the presence of Cu^2+
T4 construct: 39aa rho-tag; expressed in transfected cells; host or cells: NxG 108CC15 or HEK-293 cells
T4 sequence (Q8NG83 whole entry C203S): as the sequence (Q8NG83 whole entry T105A) above, with A105T, C203S counted along it
Experimental: as §3, §1, §2

[5] = target: T5, OR2M3 Y104C (Homo sapiens, UniProt Q8NG83, Y104C); assay: GloSensor assay, OR2M3 Y104C; conditions: OR2M3 Y104C (SNP haplotype)
T5 construct: full-length gene-specific forward and reverse primers were added; 39aa rho-tag; expressed in transfected cells; host or cells: NxG 108CC15 or HEK-293 cells
T5 sequence (Q8NG83 whole entry Y104C): as the sequence (Q8NG83 whole entry T105A) above, with Y104C, A105T counted along it
Source text: as §3, §2
(§4) (a) Schematic snake diagram with localization of mutated amino acid positions within OR2M3, which have been chosen because of their close vicinity to putative interaction sites with odorants as proposed by Man et al. (red circles). Effects of 3-mercapto-2-methylpentan-1-ol on OR2M3 variants (black curves) with SNP-defined single amino acid changes at positions 104^3.32 (b), 206^5.45 (c), and 207^5.46 (d). Note that the same data set for 3-mercapto-2-methylpentan-1-ol on OR2M3 wt (grey, see also Fig. 1b, d) is given in panels (b)-(d) for didactic reasons. […] RLU = relative luminescence unit. 3MMP = 3-mercapto-2-methylpentan-1-ol.

[6] = target: T6, OR2M3 I207L (Homo sapiens, UniProt Q8NG83, I207L); assay: GloSensor assay, OR2M3 I207L; conditions: OR2M3 I207L (SNP haplotype)
T6 construct: full-length gene-specific forward and reverse primers were added; 39aa rho-tag; expressed in transfected cells; host or cells: NxG 108CC15 or HEK-293 cells
T6 sequence (Q8NG83 whole entry I207L): as the sequence (Q8NG83 whole entry T105A) above, with A105T, I207L counted along it
Source text: as §3, §2, §4

[7] = target: T7, OR2M3 M206I (Homo sapiens, UniProt Q8NG83, M206I); assay: GloSensor assay, OR2M3 M206I; conditions: OR2M3 M206I (SNP haplotype)
T7 construct: 39aa rho-tag; expressed in transfected cells; host or cells: NxG 108CC15 or HEK-293 cells
T7 sequence (Q8NG83 whole entry M206I): as the sequence (Q8NG83 whole entry T105A) above, with A105T, M206I counted along it
Source text: as §3, §2, §4

[8] = target: T8, OR2M3 C112S (Homo sapiens, UniProt Q8NG83, C112S); assay: GloSensor assay, OR2M3 C112S; conditions: presence of copper 10 µmol/L, agonist 20 µmol/L
T8 construct: 39aa rho-tag; expressed in transfected cells; host or cells: NxG 108CC15 or HEK-293 cells
T8 sequence (Q8NG83 whole entry C112S): as the sequence (Q8NG83 whole entry T105A) above, with A105T, C112S counted along it
Experimental: as §3, §1, §2

[9] = target: T9, OR2M3 C202A (Homo sapiens, UniProt Q8NG83, C202A); assay: GloSensor assay, OR2M3 C202A; conditions: even in the presence of Cu^2+, agonist 20 µmol/L
T9 construct: 39aa rho-tag; expressed in transfected cells; host or cells: NxG 108CC15 or HEK-293 cells
T9 sequence (Q8NG83 whole entry C202A): as the sequence (Q8NG83 whole entry T105A) above, with A105T, C202A counted along it
Experimental: as §3, §1, §2

[10] = target: T10, OR2M3 C202S (Homo sapiens, UniProt Q8NG83, C202S); assay: GloSensor assay, OR2M3 C202S; conditions: even in the presence of Cu^2+, agonist 20 µmol/L
T10 construct: full-length gene-specific forward and reverse primers were added; 39aa rho-tag; expressed in transfected cells; host or cells: NxG 108CC15 or HEK-293 cells
T10 sequence (Q8NG83 whole entry C202S): as the sequence (Q8NG83 whole entry T105A) above, with A105T, C202S counted along it
Experimental: as §3, §1, §2

[11] = target: T11, OR2M3 C203A (Homo sapiens, UniProt Q8NG83, C203A); assay: GloSensor assay, OR2M3 C203A; conditions: even in the presence of Cu^2+, agonist 20 µmol/L
T11 construct: 39aa rho-tag; expressed in transfected cells; host or cells: NxG 108CC15 or HEK-293 cells
T11 sequence (Q8NG83 whole entry C203A): as the sequence (Q8NG83 whole entry T105A) above, with A105T, C203A counted along it
Experimental: as §3, §1, §2

[12] = target: T12, OR2M3 C203Y (Homo sapiens, UniProt Q8NG83, C203Y); assay: GloSensor assay, OR2M3 C203Y; conditions: in the absence or presence of Cu^2+
T12 construct: full-length gene-specific forward and reverse primers were added; 39aa rho-tag; expressed in transfected cells; host or cells: NxG 108CC15 or HEK-293 cells
T12 sequence (Q8NG83 whole entry C203Y): as the sequence (Q8NG83 whole entry T105A) above, with A105T, C203Y counted along it
Experimental: as §3, §1, §2

[13] = target: T13, OR2M3 C241A (Homo sapiens, UniProt Q8NG83, C241A); assay: GloSensor assay, OR2M3 C241A; conditions: OR2M3 Cys241 to alanine; in the absence or presence of Cu^2+
T13 construct: 39aa rho-tag; expressed in transfected cells; host or cells: NxG 108CC15 or HEK-293 cells
T13 sequence (Q8NG83 whole entry C241A): as the sequence (Q8NG83 whole entry T105A) above, with A105T, C241A counted along it
Experimental: as §3, §1, §2

[14] = target: T14, OR2M3 H244A (Homo sapiens, UniProt Q8NG83, H244A); assay: GloSensor assay, OR2M3 H244A; conditions: OR2M3 His244 to alanine; in the absence or presence of Cu^2+
T14 construct: 39aa rho-tag; expressed in transfected cells; host or cells: NxG 108CC15 or HEK-293 cells
T14 sequence (Q8NG83 whole entry H244A): as the sequence (Q8NG83 whole entry T105A) above, with A105T, H244A counted along it
Experimental: as §3, §1, §2

[15] = 10 µmol/L Cu^2+, read-out: EC50 in the presence of Cu^2+
[16] = presence of copper 10 µmol/L, agonist 20 µmol/L

EC50 ([1]; 10 µmol/L Cu^2+, mean ± SD (n = 3–5), read-out: EC50 in the presence of Cu^2+): 0.29 ± 0.1 µM
Relative amplitude ([1]; 30 µmol/L AgAc, normalized to wt signal without Cu^2+): 5.72 ± 0.42
EC50 ([1]; 30 µmol/L AgAc, read-out: EC50): 0.87 ± 0.5 µM
Relative amplitude ([1]; 30 µmol/L AgNO3, normalized to wt signal without Cu^2+): 6.41 ± 1.17
EC50 ([1]; 30 µmol/L AgNO3, read-out: EC50): 1.49 ± 0.36 µM
EC50 ([1]; 30 µmol/L CoCl2, read-out: EC50): 0.73 ± 0.26 µM
EC50 ([1]; 30 µmol/L CuCl2 + copper chelator TEPA, read-out: EC50): 1.13 ± 0.36 µM
EC50 ([1]; 30 µmol/L FeCl3, read-out: EC50): 1.67 ± 0.34 µM
EC50 ([1]; 30 µmol/L NiCl2, read-out: EC50): 1.09 ± 0.63 µM
Relative amplitude ([1]; 30 µmol/L ZnSO4, n.d. = no detectable response up to 60 µmol/L): complete loss-of-function
Relative amplitude ([1]; 30 µmol/L colloidal Ag, normalized to wt signal without Cu^2+): 3.52 ± 0.69
EC50 ([1]; 30 µmol/L colloidal Ag, read-out: EC50): 0.76 ± 0.35 µM
Hill coefficient ([1]; absence of copper (n = 4)): 0.89 ± 0.41
Relative amplitude ([1]; copper concentration 60 µmol, normalized to wt signal without Cu^2+): 1.42 ± 0.64
EC50 ([1]; copper concentration 60 µmol, read-out: EC50): 1.47 ± 0.12 µM
Relative amplitude ([1]; copper concentration 100 µmol, normalized to wt signal without Cu^2+): 0.73 ± 0.48
EC50 ([1]; copper concentration 100 µmol, read-out: EC50): 1.95 ± 0.3 µM
EC50 ([1]; no metal supplementation (w/o), mean ± SD (n = 3–5), read-out: EC50 in the absence of Cu^2+): 0.45 ± 0.19 µM
EC50 ([1]; presence of 30 µmol/L CuCl2, read-out: EC50): 0.55 ± 0.01 µM
Hill coefficient ([1]; presence of copper (10 µmol/L) (n = 4)): 1.9 and 1.93 ± 0.71 and ~2
increase in amplitude ([1]; supplementation with ionic or colloidal silver, 30 µmol/L): three-to-sixfold increase in amplitude
Relative amplitude ([1]; w/o metal, normalized to OR2M3 wt signal with 3-mercapto-2-methylpentan-1-ol (20 µmol/L) in the absence of Cu^2+ (reference)): 1
EC50 [2, 15]: 0.75 ± 0.27 µM
agonist function in mutant receptor [2, 16]: rescued
EC50 [3, 15]: 0.86 ± 0.004 µM
agonist function in mutant receptor [3, 16]: rescued
EC50 [4]: 3.16 ± 0.01 µM
EC50 [5]: 1.02 ± 0.18 µM
EC50 [6]: 1.41 ± 0.04 µM
receptor function (response to agonist) [7]: complete loss-of-function
agonist function in mutant receptor [8]: rescued
agonist function in mutant receptor [9]: complete loss-of-function
agonist function in mutant receptor [10]: complete loss-of-function
agonist function in mutant receptor [11]: complete loss-of-function
agonist function in mutant receptor [12]: complete loss-of-function
agonist function in mutant receptor [13]: not functional anymore
agonist function in mutant receptor [14]: not functional anymore
Compound: CCC(S)C(C)CO (stereo not shown) [3-Mercapto-2-methylpentan-1-ol, 3-mercapto-2-methylpentan-1-ol]
